Test results published in publication PMC4328002 (Natural Products and Bioprospecting, 2015).
Several values for one entry are separate records, joined by “and”; a condition that tells them apart may be missing. Equal entries are not always repeated. Where two headings read alike, the source gives them in different places.

What was measured:
[1] = system: HL-60, SMMC-7721, A549, MCF-7 and SW-480 human cancer cell lines; experiment: cells; format: cell-based; details: read-out: IC50 values across the five cancer cell lines
[2] = system: BEAS-2B normal cell line (human bronchial epithelial cell); details: for IC50: read-out: Cancer cell line IC50, BEAS-2B
[3] = system: SMMC-7721 (hepatocarcinoma); experiment: cells; format: cell-based, human; details: read-out: Cancer cell line IC50, SMMC-7721
[4] = system: SW-480 (colon adenocarcinoma); experiment: cells; format: cell-based, human; details: read-out: Cancer cell line IC50, SW480
[5] = system: MCF-7 (breast adenocarcinoma); experiment: cells; format: cell-based, human; details: read-out: Cancer cell line IC50, MCF-7
[6] = system: HL-60 (promyelocytic leukemia); experiment: cells; format: cell-based, human; details: read-out: Cancer cell line IC50, HL-60
[7] = system: A549 (lung carcinoma); experiment: cells; format: cell-based, human
[8] = system: BEAS-2B normal cell line (human bronchial epithelial cell); experiment: cells; details: read-out: Cancer cell line IC50, BEAS-2B
[9] = read-out: Cancer cell line IC50, A549
[10] = Homo sapiens, A549, 48 h, read-out: Cancer cell line IC50, A549
[11] = Homo sapiens, A549, read-out: Cancer cell line IC50, A549

Row | Structure (SMILES) | IC50 [1] | selective cytotoxicity against the A549 cell line [2] | IC50 [2] | IC50 [3] | IC50 [4] | IC50 [5] | IC50 [6] | IC50 [7, 9] | IC50 ([1]; Homo sapiens, 48 h) | IC50 ([3]; Homo sapiens, SMMC-7721, 48 h) | IC50 ([4]; Homo sapiens, SW480, 48 h) | IC50 [8] | IC50 ([5]; Homo sapiens, MCF7, 48 h) | IC50 ([6]; Homo sapiens, HL-60, 48 h) | IC50 [7, 10] | IC50 [7, 11]
1 | C/C=C\C(=O)O[C@@H]1C[C@H]2O[C@@H]3C=C(C)C(=O)C[C@]3(C)[C@]1(C)[C@]21CO1 [Compound 8, trichothecin] | < 3.5 µM | did not exhibit selective cytotoxicity | 0.27 µM | 0.22 µM | 0.18 µM | 0.21 µM | 0.14 µM | 0.2 µM and 0.22 µM |  |  |  |  |  |  |  | 
2 | C/C=C\C(=O)O[C@@H]1C[C@H]2O[C@@]34C=C(C)C(=O)C[C@]3(C)[C@]1(C)[C@]2(CO)O4 [Compound 1, engleromycone A] |  | did not exhibit selective cytotoxicity |  |  |  |  |  |  | 14.3 to 20.2 µM | 19.1 µM | 20.2 µM | 19.4 µM | 18 µM | 14.3 µM | 19.1 µM | 18.9 µM
3 | CC1=C[C@]23O[C@@H]4CC[C@](C)([C@@]2(C)CC1)[C@]4(CO)O3 [Compound 4, 3-deoxysambucinol] |  |  |  |  |  |  |  |  | > 40 µM | > 40 µM | > 40 µM |  | > 40 µM | > 40 µM | > 40 µM | 
4 | CC1=C[C@H]2O[C@@H]3C[C@@H](O)[C@](C)([C@@]2(C)CC1=O)[C@]31CO1 [Compound 5, trichothecolone] |  | did not exhibit selective cytotoxicity | 4.18 µM | 6.92 µM | 8.52 µM | 16.5 µM | 4.86 µM | 4.16 µM and 5.71 µM |  |  |  |  |  |  |  | 
5 | CC1=C[C@]23O[C@@H]4[C@@H](O)C[C@](C)([C@@]2(C)CC1)[C@]4(CO)O3 [Compound 3, sambucinol] |  |  |  |  |  |  |  |  | > 40 µM | > 40 µM | > 40 µM |  | > 40 µM | > 40 µM | > 40 µM | 
6 | C=C1[C@H]2C[C@@H](OC(=O)/C=C\C)[C@]1(C)[C@@]1(C)CC(=O)C(C)=C[C@H]1O2 [Compound 2, engleromycone B] |  | did not exhibit selective cytotoxicity |  |  |  |  |  |  | 2.7 to 21.1 µM | 8.41 µM | 9.25 µM | 9.87 µM | 21.1 µM | 2.7 µM | 2.98 µM | 5.82 µM
7 | N.N.[Cl][Pt][Cl] [Cisplatin, cisplatin, reference compound] |  |  | 9.53 µM | 5.81 µM | 12 µM | 13.3 µM | 1.91 µM | 6.43 µM and 9.72 µM |  |  |  |  |  |  |  | 
8 | C/C=C\C(=O)O[C@@H]1[C@@H](O)[C@H]2O[C@@H]3C=C(C)C(=O)C[C@]3(C)[C@]1(C)[C@]21CO1 [Compound 10, trichothecinol A] | < 3.5 µM | did not exhibit selective cytotoxicity | 0.025 µM | 0.02 µM | 0.011 µM | 0.006 µM | 0.022 µM | 0.015 µM and 0.016 µM |  |  |  |  |  |  |  | 
9 | CC(=O)O[C@H]1C(=O)[C@@]2(C)[C@H]([C@H](OC(=O)c3ccccc3)[C@]3(O)C[C@H](OC(=O)[C@H](O)[C@@H](NC(=O)c4ccccc4)c4ccccc4)C(C)=C1C3(C)C)[C@]1(OC(C)=O)CO[C@@H]1C[C@@H]2O [Taxol, paclitaxel, reference compound] |  |  |  |  |  |  |  |  |  | < 0.008 µM | < 0.008 µM | < 0.98 µM | < 0.008 µM | < 0.008 µM | < 0.008 µM | < 0.008 µM
